According to patent publication US11406664B2, “Ferric maltol compositions for use in the treatment or prevention of cancer and tumours” (Shield TX (UK) Limited, priority 2016, dated 2022):

Key:
[1] = tested on: HT29 human epithelial colorectal adenocarcinoma cell line; assay: Proliferation assay by real time live cell imaging (Incucyte), HT29; type: cell-based; conditions: for effect on cancer cell proliferation, ligand not bound to iron: ligand-only control; for effect on cancer cell proliferation, ligand not bound to iron / effect on cell proliferation: 72 h; for effect on cell proliferation: iron compounds, 5 or 10% FBS, at concentrations predicted in gut lumen with iron supplementation
Description: FIG. 3: Inhibition of cell proliferation in the HT29 human epithelial colorectal adenocarcinoma cell line with the different iron compounds as assessed by real time live cell imaging (Incucyte™). Conditions were as above in the legend to FIG. 2.
(§1) A stock solution of ferric citrate (FeCitrate) 8 mM [Fe] was produced by adding citric acid to ferric chloride on a 1:1 molar ratio. Ferric trimaltol (FTMB) was produced from iron hydroxides and maltol, and the stock solution of circa 8 mM [Fe] was produced by dissolving it in ultrapure water. All stock solutions were filter sterilised (0.2 μm).
(§2) Three different epithelial cancer cell lines were used: colorectal adenocarcinoma [Caco2 (ATCC) and HT29(ECAAC)] and duodenum adenocarcinoma [Hutu 80 (ATCC)]. The cells were grown in an incubator at 37° C. and an atmosphere of 5% CO2 and 95% air at a relative humidity of approximately 95%. The cancer cells were grown in Gibco® MEM supplemented with 5 or 10% foetal bovine serum (FBS) as stated, 1% penicillin/streptomycin (10.000 Units/ml Penicillin, 10.000 μg/ml Streptomycin) and 1% fungizone (Amphotericin B, 250 μg/ml).
(§3) Working solutions of 2 mM [Fe] for each iron compound were prepared fresh on the day of the experiment by diluting the stock solutions of the different iron materials in complete cell growth medium and these 2 mM solutions were used in the serial dilutions to achieve the 8 different concentrations for the proliferation assay (0.89, 0.49, 0.27, 0.15, 0.08, 0.05, 0.026, 0.015) in 96-well ImageLock cell culture plates. A control condition containing only complete growth medium without any iron compound added was also tested. The cells were seeded at a density of 10,000-20,000 cells/well. The plates were incubated in a Live Content Imaging Incubator (Incucyte ZOOM, Essen BioScience Ltd., UK) and images and confluence data were acquired every 3 hours for 72 hours post-seeding. Within each experiment each iron concentration was tested in triplicate wells.
(§4) The plot of confluence (%) vs time (h) was obtained for each iron compound and concentration. The area under the curve (AUC) was calculated and plotted against the concentration for each test compound or the control. The AUC for each iron compound was normalised against that of the control (i.e. complete growth medium alone).

[2] = tested on: Hutu 80 human epithelial duodenum adenocarcinoma cell line; assay: Proliferation assay by real time live cell imaging (Incucyte), Hutu 80; type: cell-based; conditions: for effect on cancer cell proliferation, ligand not bound to iron: ligand-only control; for effect on cancer cell proliferation, ligand not bound to iron / effect on cell proliferation: 72 h; for effect on cell proliferation: iron compounds, 5 or 10% FBS, at concentrations predicted in gut lumen with iron supplementation
Description: FIG. 2: Inhibition of cell proliferation in the Hutu 80 human epithelial duodenum adenocarcinoma cell line with different iron compounds as assessed by real time live cell imaging (Incucyte™) Cells were treated for 72 h with the indicated iron compounds in complete growth media containing 5% FBS (A) or 10% FBS (B), the corresponding ‘ligand-only’ controls are shown in panels C and D. Normalised cell proliferation corresponds to the area under the proliferation curve for cells grown in media supplemented with each compound divided by the area under the curve for cells grown in media alone (i.e. without any of the supplemented compounds). Data are presented as mean with SEM (n=2 independent experiments with 3 replicates for each experiment).
as §1, §2, §3, §4

intestinal cancer = conditions: animal models; cited from earlier work
[3] = patients with inflammatory bowel disease; cited from earlier work
[4] = tested on: Caco2 human epithelial colorectal adenocarcinoma cell line; assay: Proliferation assay by real time live cell imaging (Incucyte), Caco2; type: cell-based; conditions: for effect on cell proliferation: iron compounds, 5 or 10% FBS, at concentrations predicted in gut lumen with iron supplementation
Description: FIG. 1. […] Cells were treated for 72 h with the indicated iron compounds in complete growth media containing 5% FBS (A) or 10% FBS (B), the corresponding ‘ligand-only’ controls are shown in panels C and D. Normalised cell proliferation corresponds to the area under the proliferation curve for cells grown in media supplemented with each compound divided by the area under the curve for cells grown in media alone (i.e. without any of the supplemented compounds). Data are presented as mean with SEM (n=3 independent experiments with 3 replicates for each experiment).
as §1, §2, §3, §4

[5] = review of real time-recorded cell images, concentration as iron

| Molecule | effect on cancer cell proliferation, ligand not bound to iron [1] | effect on cancer cell proliferation, ligand not bound to iron [2] | effect on cell proliferation [1] | effect on intestinal cancer (intestinal cancer) | effect on cell proliferation [2] | effect on cell proliferation ([4]; 72 h) | further results |
| --- | --- | --- | --- | --- | --- | --- | --- |
| O=C(O)CN(CCN(CC(=O)O)CC(=O)O)CC(=O)O [EDTA] | moderate inhibition | moderate inhibition | – | – | – | – | – |
| O=C([O-])CN(CCN(CC(=O)[O-])CC(=O)[O-])CC(=O)[O-].[Fe+3].[Na+] [ferric EDTA, ferric EDTA sodium salt] | – | – | promoted proliferation | enhance intestinal cancer | promoted proliferation | – | – |
| Cc1occc(=O)c1[O-].Cc1occc(=O)c1[O-].Cc1occc(=O)c1[O-].[Fe+3] [ferric trimaltol] | – | – | inhibited cancer cell proliferation | – | inhibited cancer cell proliferation | inhibited cancer cell proliferation | iron concentration at which cells were non-proliferative [1, 5]: 80 µM; iron concentration at which cells were poorly proliferating [1, 5]: 50 µM; correction of iron deficiency anaemia [3]: effectively delivers iron to correct iron deficiency anaemia; iron concentration at which cells were non-proliferative [2, 5]: 400 µM; iron concentration at which cells were poorly proliferating [2, 5]: 150 µM; iron concentration at which cells were non-proliferative [4, 5]: 80 µM; iron concentration at which cells were poorly proliferating [4, 5]: 50 µM |
| O.O.O.O.O.O.O.O=S(=O)([O-])[O-].[Fe+2] [ferrous sulphate, Ferrous sulphate heptahydrate] | – | – | promoted proliferation | – | promoted proliferation | – | – |
| Cc1occc(=O)c1O [maltol, 3-Hydroxy-2-methyl-4H-pyran-4-one] | moderate inhibition | moderate inhibition | – | – | – | – | effect on cancer cell proliferation, ligand not bound to iron ([4]; ligand-only control, 72 h): moderate inhibition |
| ferric citrate | – | – | promoted proliferation | enhance intestinal cancer | promoted proliferation | promoted proliferation | – |
